Columns and labels:
[1] = system: octopamine receptor sites; assay: 3H-OA binding to ventral nerve cord / synaptosomal membrane protein; parameters: species or system American cockroach (Periplaneta americana); conditions: for classification with respect to octopamine receptor sites (OAR): based on the binding data of Tables 1-3; for dpm 3H-OA/500 μg protein: Table 2
Procedure: Different concentrations of unlabeled octopamine (OA) (20, 30, 40, 50, 60, 100 ng) were tested on the binding activity as a positive control. Test chemicals were dissolved in acetone before the assay. Different concentrations of the test chemicals were added directly to the protein preparation from ventral nerve cord. The same amount of solvent (1 μl 0.1%) were added to the control samples. All assays with test chemicals were run in the presence and absence of 50 ng OA. All chemicals were added to the protein extract 20 min prior the addition of radio labeled ^3H-OA(100,000 cpm/sample). After 30 min at 24° C. of the addition of ^3H-OA, the reaction was stopped by the addition of ice-cold Tris buffer, and the samples were filtered through GF/C membrane using water vacuum. After two washes each with 5 ml Tris buffer, the membrane was removed, air dried and the radioactivity was counted in 4 ml liquid scintillation solution. The specific binding was calculated as the difference between the values in the presence and absence of unlabeled OA. All data are calculated as the mean±standard deviation of 5 assays.
Additional tests were conducted on radio labeled octopamine using other purified naturally occurring materials as given in Tables 2 and 3.

[2] = system: heart of American cockroach (octopamine receptors); assay: Heartbeat after application to thoracic segment; type: in vivo; conditions: mean ±SD of three roaches
Procedure: To further establish the effect of the purified naturally occurring plant essential oils and/or their constituents on the American cockroach, a 300 μg amount of the chemical was applied to the thoracic segment of an intact and alive American cockroach. The heart beats/30 seconds was measured. The heart of the cockroach is known to have a high concentration of octopamine receptors and the heart beat is considered an important measurement to indicate the effect of the applied chemicals to the octopamine receptors.

American cockroach [3] = assay: Cross walk jar test on pre-treated surface; type: in vivo
Procedure: In the test, a known amount of the test material was dissolved in a known volume of acetone and applied to small jars and all inner bottom surfaces were covered. The bottom surface of each jar is approximately 250 cm^2. One hour after the acetone had completely evaporated, five American cockroaches were introduced to each jar. Control jars were treated exactly as above but with the known amount of acetone only.
The results of the “cross walk” jar tests are in Table 8 in which the “4-blend” was dispersed as an aerosol and a dust in the jar.
In this test, the acetone solution of the test material was placed in the jar and the roach inserted into the jar after the acetone had evaporated.
Mortality was measured 24 hours after exposure.
The “4-blend” and the individual constituents of the “4-blend” were tested using 10 cockroaches for each “cross walk” treatment. In addition, pyrethrins were tested separately and mixed with the various components.
A concentration of 100 mg/jar was used for each individual alone. In the co-treatment experiment without pyrethrins, 20 mg/jar for each chemical was used. In the cotreatment experiment with pyrethrins, 20 mg/jar for the naturally occurring plant material was used. Pyrethrins was used at 2 mg/jar. […] It was noted above that the mortality is dependent upon concentration. […] Some synergism is found between pyrethrins and either α-terpineol or benzyl alcohol.

American cockroach [4] = assay: Lethal effect of injected test chemicals; type: in vivo; conditions: dead/10
Procedure: Further studies were conducted to determine the LD 50 of purified naturally occurring plant essential oils and/or their constituents. […] Ten roaches per dose were used. Another group of ten roaches received the same volume of vehicle only (0.5 μl) and used as a control group. Mortality was recorded 24, 48, and 72 hours after exposure.

[5] = 500 ng/ml, Table 3, solvent control 1385 ± 101
[6] = 1000 ng/ml, Table 3, solvent control 1915 ± 110

Structure (SMILES)	agonist/antagonist note to 3H-OA binding ([1]; 500 ng/ml)	cpm 3H-OA/500 μg protein [1, 5]	cpm 3H-OA/500 μg protein [1, 6]	classification with respect to octopamine receptor sites (OAR) [1]	also measured
Cc1ccc(C(C)C)cc1 [p-cymene]	antagonist	1142 ± 074 cpm 3H-OA/500 μg protein	804 ± 057 cpm 3H-OA/500 μg protein	moderate OAR antagonists	
CC1=CC[C@H](C(C)C)C=C1 [α-phellandrene]	agonist	2353 ± 343 cpm 3H-OA/500 μg protein		OAR Agonists	
CC(=O)OCc1ccc2c(c1)OCO2 [Piperonyl acetate]	antagonist	1090 ± 092 cpm 3H-OA/500 μg protein	519 ± 52 cpm 3H-OA/500 μg protein		
C/C=C/c1ccc(OC)cc1 [Trans-Anethole]	antagonist	1104 ± 110 cpm 3H-OA/500 μg protein	970 ± 87 cpm 3H-OA/500 μg protein	moderate OAR antagonists	
CC1=CCC(C(C)(C)O)CC1 (stereo not drawn) [α-terpineol]				moderate OAR antagonists	Heart beat/30 sec 30 min after treatment ([2]; 300 μg applied to thoracic segment): 32 ± 2 beat/30 sec; Heart beat/30 sec before treatment ([2]; baseline of the same roaches): 58 ± 4 beat/30 sec; cpm 3H-OA/500 μg protein ([1]; 300 ng test chemical, Table 1, solvent control 1280 ± 259): 1213 ± 110 cpm 3H-OA/500 μg protein; cpm 3H-OA/500 μg protein ([1]; 500 ng test chemical, Table 1, solvent control 1280 ± 259): 1031 ± 24 cpm 3H-OA/500 μg protein; cpm 3H-OA/500 μg protein ([1]; 700 ng test chemical, Table 1, solvent control 1280 ± 259): 910 ± 88 cpm 3H-OA/500 μg protein; cpm 3H-OA/500 μg protein ([1]; 1000 ng test chemical, Table 1, solvent control 1280 ± 259): 700 ± 88 cpm 3H-OA/500 μg protein; cpm 3H-OA/500 μg protein ([1]; 1500 ng test chemical, Table 1, solvent control 1280 ± 259): 565 ± 47 cpm 3H-OA/500 μg protein; mortality at 100 mg (American cockroach [3]; Periplaneta americana, 24 h): 20%; mortality at 100 mg (American cockroach [3]; Periplaneta americana, 48 h): 30%; mortality at 100 mg (American cockroach [3]; Periplaneta americana, 72 h): 60%
CC(C)=CCCC(C)CC=O (centres unmarked) [citronellal]					Mortality (American cockroach [4]; 500 μg/roach injected into thoracic and abdominal segments, 24 hr.): 0/10; Mortality (American cockroach [4]; 500 μg/roach injected, 48 hr.): 0/10; Mortality (American cockroach [4]; 500 μg/roach injected, 72 hr., control 1/10): 0/10
CCOc1cc(C=O)ccc1O [Ethyl vanillin]		1723 ± 119 cpm 3H-OA/500 μg protein		Non-OAR Specific Toxicants	
COC(=O)c1ccccc1O [Methyl salicylate]	antagonist	0084 ± 009 cpm 3H-OA/500 μg protein		extremely high OAR antagonists	activity/binding at octopamine receptor sites, in words [1]: antagonists which are most strongly bound; mortality at 10 mg (American cockroach [3]; Periplaneta americana, 24 h): 0%; mortality at 20 mg (American cockroach [3]; Periplaneta americana, 24 h): 20%; mortality at 30 mg (American cockroach [3]; Periplaneta americana, 24 h): 40%; mortality at 40 mg (American cockroach [3]; Periplaneta americana, 24 h): 80%; mortality at 50 mg (American cockroach [3]; Periplaneta americana, 24 h): 100%; pesticidal activity against cockroaches, in words (American cockroach [3]; in vivo): high pesticidal activity
COc1cc(C=O)ccc1O [Vanillin]	antagonist	1030 ± 83 cpm 3H-OA/500 μg protein	700 ± 55 cpm 3H-OA/500 μg protein		
CC(C)=CCCC(C)CCO (centres unmarked) [Citronellol]					dpm 3H-OA/500 μg protein ([1]; 500 ng/ml, solvent control 1101 ± 120): 999 ± 65 dpm 3H-OA/500 μg protein; dpm 3H-OA/500 μg protein ([1]; 1000 ng/ml, solvent control 930 ± 89): 557 ± 43 dpm 3H-OA/500 μg protein
COc1ccccc1O [Guaiacol]		1787 ± 151 cpm 3H-OA/500 μg protein		Non-OAR Specific Toxicants	

From patent US6841577B2, “Pesticidal activity of plant essential oils and their constituents” (Ecosmart Technologies, Inc., priority 1999, dated 2005)
